Reference: patent US10231965B2, “Molecules for administration to ROS1 mutant cancer cells” (Ignyta, Inc., priority 2014, dated 2019)
Entries after “also recorded” stand apart in the source; their conditions may differ.

Experiments:
[1] = test system: Neuroblastoma (NB); experiment: Dose escalation study: tumor response by RECIST, neuroblastoma patient; format: in vivo, human; details: person, metastatic NB, ALK mutation, Schedule A
Description: (§1) A dose escalation study of N-[5-(3,5-difluorobenzyl)-1H-indazol-3-yl]-4-(4-methyl-piperazin-1-yl)-2-(tetrahydro-2H-pyran-4-ylamino) benzamide was conducted in human patients with advanced solid tumors. N-[5-(3,5-difluorobenzyl)-1H-indazol-3-yl]-4-(4-methyl-piperazin-1-yl)-2-(tetrahydro-2H-pyran-4-ylamino) benzamide was dosed orally once/day in a 4 day on, 3 day off schedule for 3 weeks, followed by a 7 day rest period, in continuous 28-day cycles (Schedule A); once/day in continuous 28-day cycles (Schedule B); and once/day in a 4 day on, 3 day off schedule without interruption in continuous 28-day cycles (Schedule C). A minimum of 3 patients were enrolled at each dose level. Endpoints include safety, PK, and tumor response by response evaluation criteria in solid tumors (RECIST).
(§2) Schedule A evaluated ascending oral doses of N-[5-(3,5-difluorobenzyl)-1H-indazol-3-yl]-4-(4-methyl-piperazin-1-yl)-2-(tetrahydro-2H-pyran-4-ylamino) benzamide once daily (fasted state) in a 4-day on, 3-day off schedule for 3 weeks, followed by a 7-day rest period, in continuous 28-day cycles. Dose escalation was conducted according to the standard ‘3+3’ scheme.
Schedule B evaluated ascending oral doses of N-[5-(3,5-difluorobenzyl)-1H-indazol-3-yl]-4-(4-methyl-piperazin-1-yl)-2-(tetrahydro-2H-pyran-4-ylamino) benzamide once daily (fed state) without rest, in continuous 28-day cycles. […]

[2] = test system: Colorectal Cancer (CRC); experiment: Dose escalation study: tumor response by RECIST, CRC patient; format: in vivo, human; details: person, metastatic CRC, TrkA rearrangement, 1600 mg/m^2, Schedule A
Description: as §1, §2
(§3) Schedule B evaluated ascending oral doses of N-[5-(3,5-difluorobenzyl)-1H-indazol-3-yl]-4-(4-methyl-piperazin-1-yl)-2-(tetrahydro-2H-pyran-4-ylamino) benzamide once daily (fed state) without rest, in continuous 28-day cycles.
(§4) Schedule C evaluated ascending oral doses of N-[5-(3,5-difluorobenzyl)-1H-indazol-3-yl]-4-(4-methyl-piperazin-1-yl)-2-(tetrahydro-2H-pyran-4-ylamino) benzamide once daily (fed state) in a 4-day on, 3-day off schedule for 4 weeks without rest, in continuous 28-day cycles.

[3] = Dose escalation study in human patients with advanced solid tumors: PK; format: in vivo
Description: as §1, §2, §3, §4

[4] = test system: human patients with advanced solid tumors; experiment: Dose escalation study in human patients with advanced solid tumors: safety, adverse events; format: in vivo
Description: as §1, §2, §3, §4

[5] = test system: advanced solid tumors; experiment: Dose escalation study: tumor response by RECIST, all patients; format: in vivo, human
Description: as §1, §2, §3, §4

[6] = test system: Non-Small Cell Lung Cancer (NSCLC); experiment: Dose escalation study: tumor response by RECIST, NSCLC patients; format: in vivo, human
Description: as §1, §2, §3, §4

CN1CCN(c2ccc(C(=O)Nc3n[nH]c4ccc(Cc5cc(F)cc(F)c5)cc34)c(NC3CCOCC3)c2)CC1 [N-[5-(3,5-difluorobenzyl)-1H-indazol-3-yl]-4-(4-methyl-piperazin-1-yl)-2-(tetrahydro-2H-pyran-4-ylamino) benzamide]
cycles until response achieved ([1]; 200 to 1200 mg/m^2/day): 12 cycles | tumor response ([1]; started at 200 mg/m^2/day, escalated to 1200 mg/m^2/day): partial response | tumor response ([2]; s/p chemotherapy, cetuximab): partial response | cycles until response achieved [2]: 1 cycle | duration of partial response before progressive disease [2]: 4 cycles | exposure at top dose (reason Schedule A was terminated) ([3]; Schedule A, 1600 mg/m2/day): plateau | mean plasma half-life ([3]; human patients, oral once/day, following administration): 17 to 44 h | Exposure versus dose ([3]; human patients, oral, dosing Schedule A): increased in an approximate dose proportional manner up to doses of 800 mg/m^2 | Abdominal pain G1 (%) ([4]; 25 patients, all schedules): 16% | Abdominal pain G1, number of patients ([4]; 25 patients, all schedules): 4 | Abdominal pain G2 (%) ([4]; 25 patients, all schedules): 8% | Abdominal pain G2, number of patients ([4]; 25 patients, all schedules): 2 | Abdominal pain Total (%) ([4]; 25 patients, all schedules): 24% | Abdominal pain Total, number of patients ([4]; 25 patients, all schedules): 6 | Arthralgia G1 (%) ([4]; 25 patients, all schedules): 12% | Arthralgia G1, number of patients ([4]; 25 patients, all schedules): 3 | Arthralgia G2 (%) ([4]; 25 patients, all schedules): 12% | Arthralgia G2, number of patients ([4]; 25 patients, all schedules): 3 | Arthralgia Total (%) ([4]; 25 patients, all schedules): 24% | Arthralgia Total, number of patients ([4]; 25 patients, all schedules): 6 | Asthenia G1 (%) ([4]; 25 patients, all schedules): 36% | Asthenia G1, number of patients ([4]; 25 patients, all schedules): 9 | Asthenia G2 (%) ([4]; 25 patients, all schedules): 12% | Asthenia G2, number of patients ([4]; 25 patients, all schedules): 3 | Asthenia Total (%) ([4]; 25 patients, all schedules): 52% | Asthenia Total, number of patients ([4]; 25 patients, all schedules): 13 | Back Pain G1 (%) ([4]; 25 patients, all schedules): 20% | Back Pain G1, number of patients ([4]; 25 patients, all schedules): 5 | Back Pain G2 (%) ([4]; 25 patients, all schedules): 4% | Back Pain G2, number of patients ([4]; 25 patients, all schedules): 1 | Back Pain Total (%) ([4]; 25 patients, all schedules): 24% | Back Pain Total, number of patients ([4]; 25 patients, all schedules): 6 | Cough G1 (%) ([4]; 25 patients, all schedules): 16% | Cough G1, number of patients ([4]; 25 patients, all schedules): 4 | Cough G2 (%) ([4]; 25 patients, all schedules): 4% | Cough G2, number of patients ([4]; 25 patients, all schedules): 1 | Cough Total (%) ([4]; 25 patients, all schedules): 20% | Cough Total, number of patients ([4]; 25 patients, all schedules): 5 | Diarrhea G1 (%) ([4]; 25 patients, all schedules): 24% | Diarrhea G1, number of patients ([4]; 25 patients, all schedules): 6 | Diarrhea G2 (%) ([4]; 25 patients, all schedules): 8% | Diarrhea G2, number of patients ([4]; 25 patients, all schedules): 2 | Diarrhea Total (%) ([4]; 25 patients, all schedules): 32% | Diarrhea Total, number of patients ([4]; 25 patients, all schedules): 8 | Dysgeusia G1 (%) ([4]; 25 patients, all schedules): 24% | Dysgeusia G1, number of patients ([4]; 25 patients, all schedules): 6 | Dysgeusia G2 (%) ([4]; 25 patients, all schedules): 0 (0) % | Dysgeusia G2, number of patients ([4]; 25 patients, all schedules): 0 (0) | Dysgeusia Total (%) ([4]; 25 patients, all schedules): 24% | Dysgeusia Total, number of patients ([4]; 25 patients, all schedules): 6 | Dyspnea G1 (%) ([4]; 25 patients, all schedules): 12% | Dyspnea G1, number of patients ([4]; 25 patients, all schedules): 3 | Dyspnea G2 (%) ([4]; 25 patients, all schedules): 4% | Dyspnea G2, number of patients ([4]; 25 patients, all schedules): 1 | Dyspnea Total (%) ([4]; 25 patients, all schedules): 24% | Dyspnea Total, number of patients ([4]; 25 patients, all schedules): 6 | Headache G1 (%) ([4]; 25 patients, all schedules): 24% | Headache G1, number of patients ([4]; 25 patients, all schedules): 6 | Headache G2 (%) ([4]; 25 patients, all schedules): 0 (0) % | Headache G2, number of patients ([4]; 25 patients, all schedules): 0 (0) | Headache Total (%) ([4]; 25 patients, all schedules): 24% | Headache Total, number of patients ([4]; 25 patients, all schedules): 6 | Myalgia G1 (%) ([4]; 25 patients, all schedules): 24% | Myalgia G1, number of patients ([4]; 25 patients, all schedules): 6 | Myalgia G2 (%) ([4]; 25 patients, all schedules): 4% | Myalgia G2, number of patients ([4]; 25 patients, all schedules): 1 | Myalgia Total (%) ([4]; 25 patients, all schedules): 28% | Myalgia Total, number of patients ([4]; 25 patients, all schedules): 7 | Nausea G1 (%) ([4]; 25 patients, all schedules): 56% | Nausea G1, number of patients ([4]; 25 patients, all schedules): 14 | Nausea G2 (%) ([4]; 25 patients, all schedules): 8% | Nausea G2, number of patients ([4]; 25 patients, all schedules): 2 | Nausea Total (%) ([4]; 25 patients, all schedules): 64% | Nausea Total, number of patients ([4]; 25 patients, all schedules): 16 | Paresthesia G1 (%) ([4]; 25 patients, all schedules): 60% | Paresthesia G1, number of patients ([4]; 25 patients, all schedules): 15 | Paresthesia G2 (%) ([4]; 25 patients, all schedules): 0 (0) % | Paresthesia G2, number of patients ([4]; 25 patients, all schedules): 0 (0) | Paresthesia Total (%) ([4]; 25 patients, all schedules): 60% | Paresthesia Total, number of patients ([4]; 25 patients, all schedules): 15 | Pyrexia G1 (%) ([4]; 25 patients, all schedules): 24% | Pyrexia G1, number of patients ([4]; 25 patients, all schedules): 6 | Pyrexia G2 (%) ([4]; 25 patients, all schedules): 0 (0) % | Pyrexia G2, number of patients ([4]; 25 patients, all schedules): 0 (0) | Pyrexia Total (%) ([4]; 25 patients, all schedules): 24% | Pyrexia Total, number of patients ([4]; 25 patients, all schedules): 6 | Vomiting G1 (%) ([4]; 25 patients, all schedules): 28% | Vomiting G1, number of patients ([4]; 25 patients, all schedules): 7 | Vomiting G2 (%) ([4]; 25 patients, all schedules): 8% | Vomiting G2, number of patients ([4]; 25 patients, all schedules): 2 | Vomiting Total (%) ([4]; 25 patients, all schedules): 36% | Vomiting Total, number of patients ([4]; 25 patients, all schedules): 9 | possibly drug-related Grade >3 AE observed (asthenia), number ([4]; Grade 3 in one patient, 1200 mg/m^2, Schedule A, subsided with dose reduction to 800 mg/m^2/day): 1 | severity of AEs ([4]; all dosing schedules tested): Most AEs<Grade 2 | tolerability ([4]; all dosing schedules tested, intermittent and daily continuous): well tolerated in all dosing schedules tested | DLTs, study discontinuations due to AEs, drug-related SAEs ([4]; any dosing schedule): No drug limiting toxicities, study discontinuations due to adverse events, or drug-related serious adverse events were reported; also recorded: No DLTs, study discontinuations due to AEs, or drug-related SAEs were reported | most common adverse events (mainly grade 1-2) considered possibly treatment-related ([4]; human patients, oral): nausea, paresthesia, vomiting, diarrhea, asthenia, myalgia, arthralgia, and dysgeusia | possibly treatment-related grade 3 AE of asthenia, number ([4]; human patients, oral): one | number of partial responses durable >9 cycles ([5]; 25 patients evaluated): 3 | number of partial responses ([5]; 25 patients evaluated, NSCLC, CRC and NB with TrkA, ROS1, and ALK molecular alterations): 5 | complete response ([5]; 25 patients evaluated, patient with NSCLC with a ROS1 molecular alteration): a complete response | number of patients with prolonged stable disease (11+ cycles) ([5]; NSCLC and pancreatic adenocarcinoma): 2 | tumor response ([6]; person one, ROS1 rearrangement, s/p 3 cycles of chemotherapy, 400 mg/m2/day, Schedule C): partial response | cycles until response achieved ([6]; person one, ROS1 rearrangement, 400 mg/m2/day, Schedule C): 1 cycle | tumor response ([6]; person two, ROS1 rearrangement, s/p 2 cycles of chemotherapy, 400 mg/m2/day, Schedule C): complete response | cycles until response achieved ([6]; person two, ROS1 rearrangement, 400 mg/m2/day, Schedule C): 2 cycles | cycles until response achieved ([6]; person, ALK rearrangement, 1200 mg/m2/day, Schedule A): 4 cycles | tumor response ([6]; person, CNS metastases, ROS1 rearrangement, s/p chemotherapy, erlotinib, 1200 mg/m^2/day, Schedule A): partial response | cycles until response achieved ([6]; person, CNS metastases, ROS1 rearrangement, 1200 mg/m^2/day, Schedule A): 2 cycles | tumor response ([6]; person, metastatic adenocarcinoma, ALK rearrangement, s/p chemotherapy, crizotinib, 1200 mg/m2/day, Schedule A): partial response
